# Data from patent publication US6194173A, “Binding proteins for phosphoinositides, GRP1 or general receptor 1 for phophoinositide” (priority 1999, dated 2001).
# Target: T1, PH domain of GRP (Mus musculus, UniProt O08967)
# T1 sequence (O08967 239-399): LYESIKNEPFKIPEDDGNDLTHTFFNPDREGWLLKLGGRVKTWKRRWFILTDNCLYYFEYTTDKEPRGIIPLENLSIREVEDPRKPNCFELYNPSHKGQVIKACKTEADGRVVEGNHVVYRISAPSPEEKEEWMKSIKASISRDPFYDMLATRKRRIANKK
# Test: Binding specificity of the GRP PH domain for 32P-labeled phosphoinositides (GST-PH on nitrocellulose)
# Set-up: species or system murine
# Conditions: GST-PH, 25,000 cpm lipid; relative to GST
# Method: The 3'-phosphatidylinositol probes labeled at the 3' position were generated using GST-p110 PI3-kinase purified from recombinant bacculovirus infected Sf 9 cells, using either purified phosphatidylinositol phosphates or crude brain lipid. Briefly, 20 mg phospholipid in chloroform was dried under N2 and resuspended in […] of buffer containing Tris-HCl pH 7.4, EDTA 1 mM and incubated in […] phopsphorylation media containing 20 mM Tris-HCl pH 7.4, 100 mM NaCl, 10 mM MgCl2, 0.5 mM EGTA. 0.2 mM adenosine, GST-p110 and 5-10 mCi [g-^32 P]ATP (5 Ci/umol). The reaction was carried out for 2 h at room temperature, quenched by addition of 0.2 ml of 1M HCl, followed by 0.5 ml of chloroform:methanol (1:1). The organic phase containing phospholipids was washed 4 times with 0.4 ml of methanol:HCl (1: 1) and stored at -70° C. until use. Just before use, the lipid was dried under a stream of nitrogen with phosphatidyl serine corresponding to a final concentration of 20 mg/ml. The identities of the PI3-P, PI3,4-P2 and PI3,4,5-P3 were confirmed by TLC and HPLC analysis.
# To generate the GST fusion proteins, PCR reactions using the primers: […] (SEQ ID NO:9) and […] (SEQ ID NO:10) for the GST-N construct, […] (SEQ ID NO:11) and […] (SEQ ID NO:12) for the GST-Sec7 construct, […] (SEQ ID NO:13) and […] (SEQ ID NO:14) for the GSTPH construct, and […] […] The filters were washed four times with 1 mL assay buffer and counted in a scintillation counter.
# In order to determine whether PI(3,4,5)P3 binding could be localized to specific sequences within the GRP structure, GST fusion proteins containing either residues 239 to 399 (PH domain), residues 52 to 260 (Sec7 domain), or residues 5 to 71, full length GRP residues 5-399 were expressed in bacteria and purified on glutathione-conjugated beads. […] 150 pmol of the proteins were spotted on nitrocellulose filters, incubated with [^32 P]PI(3,4,5)P3 and the amount of bound lipid was determined as described. […] Nitrocellulose filters with GST-PH were incubated with 25,000 cpm of each of the phospholipids and the amount of bound lipid determined as described above. […]
substance,measurement,value
"Phosphatidylinositol (3,4,5)-Trisphosphate [PtdIns(3,4,5)P3]",binding of labeled phosphoinositide to the GRP PH domain,specifically
